Measured values reported in article PMC6409085, “Three odorant-binding proteins are involved in the behavioral response of Sogatella furcifera to rice plant volatiles” (PeerJ, 2019).
Values joined by “and” are separate entries in the source; they are usually repeats but may differ in a detail not shown here. Equal entries are not always repeated.

What was measured:
Experiment in all cases: biochemical
Type in all cases: binding
SfurOBP1 = SfurOBP1 (Sogatella furcifera, UniProt V5T8N5); details: for Fluorescence competitive binding assay, fluorescence intensity: OBP1, three replicate columns
Chain of SfurOBP1 (V5T8N5 entry or part of it): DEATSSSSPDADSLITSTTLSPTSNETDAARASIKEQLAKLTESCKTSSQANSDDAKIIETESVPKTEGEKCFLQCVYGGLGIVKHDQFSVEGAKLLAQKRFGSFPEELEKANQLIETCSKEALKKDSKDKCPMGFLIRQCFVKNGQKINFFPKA
Summary of the method: (§1)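 Fluorescence competitive binding with 1-NPN as reporter: 2.0 µM protein and 2.0 µM 1-NPN in 50 mM Tris-HCl pH 7.4, odorant added at 2–20 µM final. Excitation 337 nm, emission 390–490 nm read 2 min after addition, triplicates. Ki = IC50/(1 + [1-NPN]/K1-NPN).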

SfurOBP3 = SfurOBP3 (Sogatella furcifera, UniProt V5T818); details: for Fluorescence competitive binding assay, fluorescence intensity: OBP3, three replicate columns
Chain of SfurOBP3 (V5T818 entry or part of it): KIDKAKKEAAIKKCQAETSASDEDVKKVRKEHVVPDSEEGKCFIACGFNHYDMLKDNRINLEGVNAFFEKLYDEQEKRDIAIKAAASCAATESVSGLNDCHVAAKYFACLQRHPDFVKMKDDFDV
Summary of the method: as §1

SfurOBP11 = SfurOBP11 (Sogatella furcifera, UniProt V5T6E3)
Chain of SfurOBP11 (V5T6E3 entry or part of it): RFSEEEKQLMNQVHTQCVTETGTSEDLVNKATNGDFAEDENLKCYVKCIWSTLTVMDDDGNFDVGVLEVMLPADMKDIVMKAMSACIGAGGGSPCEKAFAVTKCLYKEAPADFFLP
Summary of the method: as §1

SfurOBP2 = SfurOBP2 (Sogatella furcifera, UniProt V5T759)
Chain of SfurOBP2 (V5T759 entry or part of it): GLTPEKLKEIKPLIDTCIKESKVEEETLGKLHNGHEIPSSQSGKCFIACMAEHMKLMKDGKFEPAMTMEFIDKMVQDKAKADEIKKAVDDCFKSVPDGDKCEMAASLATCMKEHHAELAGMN
Summary of the method: as §1

## CCCCCCCCCCCCCCCCCC [n-octadecane]
SfurOBP1; ligand concentration 2 (μM)
  Fluorescence competitive binding assay, fluorescence intensity: 9199 and 7453 and 7122
SfurOBP1; ligand concentration 4 (μM)
  Fluorescence competitive binding assay, fluorescence intensity: 8077 and 8108 and 9442
SfurOBP1; ligand concentration 6 (μM)
  Fluorescence competitive binding assay, fluorescence intensity: 8157 and 9511 and 12800
SfurOBP1; ligand concentration 8 (μM)
  Fluorescence competitive binding assay, fluorescence intensity: 8086 and 8235 and 10013
SfurOBP1; ligand concentration 10 (μM)
  Fluorescence competitive binding assay, fluorescence intensity: 9302 and 9657 and 9738
SfurOBP1; ligand concentration 12 (μM)
  Fluorescence competitive binding assay, fluorescence intensity: 8567 and 10513 and 8676
SfurOBP1; ligand concentration 14 (μM)
  Fluorescence competitive binding assay, fluorescence intensity: 10345 and 9766 and 9261
SfurOBP1; ligand concentration 16 (μM)
  Fluorescence competitive binding assay, fluorescence intensity: 9156 and 9816 and 8326
SfurOBP1; ligand concentration 18 (μM)
  Fluorescence competitive binding assay, fluorescence intensity: 11251 and 11486 and 11859
SfurOBP1; ligand concentration 20 (μM)
  Fluorescence competitive binding assay, fluorescence intensity: 12749 and 11193 and 9024
SfurOBP1; SfurOBP1, protein and 1-NPN both 2.0 µM, competitor 2-20 µM, read-out: IC50
  IC50: > 20 µM
SfurOBP3; ligand concentration 2
  Fluorescence competitive binding assay, fluorescence intensity: 44756 and 46756 and 45756
SfurOBP3; ligand concentration 4
  Fluorescence competitive binding assay, fluorescence intensity: 44765 and 44970 and 45189
SfurOBP3; ligand concentration 6
  Fluorescence competitive binding assay, fluorescence intensity: 56655 and 51780 and 54218
SfurOBP3; ligand concentration 8
  Fluorescence competitive binding assay, fluorescence intensity: 56206 and 55200 and 54212
SfurOBP3; ligand concentration 10
  Fluorescence competitive binding assay, fluorescence intensity: 105189 and 108079 and 109909
SfurOBP3; ligand concentration 12
  Fluorescence competitive binding assay, fluorescence intensity: 109051 and 110510 and 104814
SfurOBP3; ligand concentration 14
  Fluorescence competitive binding assay, fluorescence intensity: 104242 and 103301 and 109995
SfurOBP3; ligand concentration 16
  Fluorescence competitive binding assay, fluorescence intensity: 96286 and 114978 and 85581
SfurOBP3; ligand concentration 18
  Fluorescence competitive binding assay, fluorescence intensity: 113407 and 123942 and 62401
SfurOBP3; ligand concentration 20
  Fluorescence competitive binding assay, fluorescence intensity: 54560 and 56227 and 56504
SfurOBP3; SfurOBP3, protein and 1-NPN both 2.0 µM, competitor 2-20 µM, read-out: IC50
  IC50: > 20 µM
SfurOBP11; SfurOBP11, protein and 1-NPN both 2.0 µM, competitor 2-20 µM, read-out: IC50
  IC50: > 20 µM
SfurOBP11; ligand concentration 2, replicate 1
  Fluorescence intensity, fluorescence competitive binding assay, OBP11: 31124
SfurOBP11; ligand concentration 2, replicate 2
  Fluorescence intensity, fluorescence competitive binding assay, OBP11: 31165
SfurOBP11; ligand concentration 2, replicate 3
  Fluorescence intensity, fluorescence competitive binding assay, OBP11: 31082
SfurOBP11; ligand concentration 4, replicate 1
  Fluorescence intensity, fluorescence competitive binding assay, OBP11: 31010
SfurOBP11; ligand concentration 4, replicate 2
  Fluorescence intensity, fluorescence competitive binding assay, OBP11: 31130
SfurOBP11; ligand concentration 4, replicate 3
  Fluorescence intensity, fluorescence competitive binding assay, OBP11: 30899
SfurOBP11; ligand concentration 6, replicate 1
  Fluorescence intensity, fluorescence competitive binding assay, OBP11: 26414
SfurOBP11; ligand concentration 6, replicate 2
  Fluorescence intensity, fluorescence competitive binding assay, OBP11: 32905
SfurOBP11; ligand concentration 6, replicate 3
  Fluorescence intensity, fluorescence competitive binding assay, OBP11: 29894
SfurOBP11; ligand concentration 8, replicate 1
  Fluorescence intensity, fluorescence competitive binding assay, OBP11: 27729
SfurOBP11; ligand concentration 8, replicate 2
  Fluorescence intensity, fluorescence competitive binding assay, OBP11: 29971
SfurOBP11; ligand concentration 8, replicate 3
  Fluorescence intensity, fluorescence competitive binding assay, OBP11: 31279
SfurOBP11; ligand concentration 10, replicate 1
  Fluorescence intensity, fluorescence competitive binding assay, OBP11: 29221
SfurOBP11; ligand concentration 10, replicate 2
  Fluorescence intensity, fluorescence competitive binding assay, OBP11: 29436
SfurOBP11; ligand concentration 10, replicate 3
  Fluorescence intensity, fluorescence competitive binding assay, OBP11: 31039
SfurOBP11; ligand concentration 12, replicate 1
  Fluorescence intensity, fluorescence competitive binding assay, OBP11: 26981
SfurOBP11; ligand concentration 12, replicate 2
  Fluorescence intensity, fluorescence competitive binding assay, OBP11: 32241
SfurOBP11; ligand concentration 12, replicate 3
  Fluorescence intensity, fluorescence competitive binding assay, OBP11: 28868
SfurOBP11; ligand concentration 14, replicate 1
  Fluorescence intensity, fluorescence competitive binding assay, OBP11: 27521
SfurOBP11; ligand concentration 14, replicate 2
  Fluorescence intensity, fluorescence competitive binding assay, OBP11: 30203
SfurOBP11; ligand concentration 14, replicate 3
  Fluorescence intensity, fluorescence competitive binding assay, OBP11: 30415
SfurOBP11; ligand concentration 16, replicate 1
  Fluorescence intensity, fluorescence competitive binding assay, OBP11: 28709
SfurOBP11; ligand concentration 16, replicate 2
  Fluorescence intensity, fluorescence competitive binding assay, OBP11: 28254
SfurOBP11; ligand concentration 16, replicate 3
  Fluorescence intensity, fluorescence competitive binding assay, OBP11: 29164
SfurOBP11; ligand concentration 18, replicate 1
  Fluorescence intensity, fluorescence competitive binding assay, OBP11: 29699
SfurOBP11; ligand concentration 18, replicate 2
  Fluorescence intensity, fluorescence competitive binding assay, OBP11: 28164
SfurOBP11; ligand concentration 18, replicate 3
  Fluorescence intensity, fluorescence competitive binding assay, OBP11: 26628
SfurOBP11; ligand concentration 20, replicate 1
  Fluorescence intensity, fluorescence competitive binding assay, OBP11: 26046
SfurOBP11; ligand concentration 20, replicate 2
  Fluorescence intensity, fluorescence competitive binding assay, OBP11: 24149
SfurOBP11; ligand concentration 20, replicate 3
  Fluorescence intensity, fluorescence competitive binding assay, OBP11: 23426
SfurOBP2; SfurOBP2, protein and 1-NPN both 2.0 µM, competitor 2-20 µM, read-out: IC50
  IC50: > 20 µM
SfurOBP2; ligand concentration 2 (unit not given), replicate column 1 of 3
  Fluorescence competitive binding assay, OBP2 (raw fluorescence reading): 22088
SfurOBP2; ligand concentration 2 (unit not given), replicate column 2 of 3
  Fluorescence competitive binding assay, OBP2 (raw fluorescence reading): 18683
SfurOBP2; ligand concentration 2 (unit not given), replicate column 3 of 3
  Fluorescence competitive binding assay, OBP2 (raw fluorescence reading): 19796
SfurOBP2; ligand concentration 4 (unit not given), replicate column 1 of 3
  Fluorescence competitive binding assay, OBP2 (raw fluorescence reading): 22227
SfurOBP2; ligand concentration 4 (unit not given), replicate column 2 of 3
  Fluorescence competitive binding assay, OBP2 (raw fluorescence reading): 21034
SfurOBP2; ligand concentration 4 (unit not given), replicate column 3 of 3
  Fluorescence competitive binding assay, OBP2 (raw fluorescence reading): 22529
SfurOBP2; ligand concentration 6 (unit not given), replicate column 1 of 3
  Fluorescence competitive binding assay, OBP2 (raw fluorescence reading): 22620
SfurOBP2; ligand concentration 6 (unit not given), replicate column 2 of 3
  Fluorescence competitive binding assay, OBP2 (raw fluorescence reading): 20809
SfurOBP2; ligand concentration 6 (unit not given), replicate column 3 of 3
  Fluorescence competitive binding assay, OBP2 (raw fluorescence reading): 24859
SfurOBP2; ligand concentration 8 (unit not given), replicate column 1 of 3
  Fluorescence competitive binding assay, OBP2 (raw fluorescence reading): 22235
SfurOBP2; ligand concentration 8 (unit not given), replicate column 2 of 3
  Fluorescence competitive binding assay, OBP2 (raw fluorescence reading): 21135
SfurOBP2; ligand concentration 8 (unit not given), replicate column 3 of 3
  Fluorescence competitive binding assay, OBP2 (raw fluorescence reading): 22654
SfurOBP2; ligand concentration 10 (unit not given), replicate column 1 of 3
  Fluorescence competitive binding assay, OBP2 (raw fluorescence reading): 23550
SfurOBP2; ligand concentration 10 (unit not given), replicate column 2 of 3
  Fluorescence competitive binding assay, OBP2 (raw fluorescence reading): 22474
SfurOBP2; ligand concentration 10 (unit not given), replicate column 3 of 3
  Fluorescence competitive binding assay, OBP2 (raw fluorescence reading): 20461
SfurOBP2; ligand concentration 12 (unit not given), replicate column 1 of 3
  Fluorescence competitive binding assay, OBP2 (raw fluorescence reading): 24276
SfurOBP2; ligand concentration 12 (unit not given), replicate column 2 of 3
  Fluorescence competitive binding assay, OBP2 (raw fluorescence reading): 21111
SfurOBP2; ligand concentration 12 (unit not given), replicate column 3 of 3
  Fluorescence competitive binding assay, OBP2 (raw fluorescence reading): 21373
SfurOBP2; ligand concentration 14 (unit not given), replicate column 1 of 3
  Fluorescence competitive binding assay, OBP2 (raw fluorescence reading): 23028
SfurOBP2; ligand concentration 14 (unit not given), replicate column 2 of 3
  Fluorescence competitive binding assay, OBP2 (raw fluorescence reading): 21327
SfurOBP2; ligand concentration 14 (unit not given), replicate column 3 of 3
  Fluorescence competitive binding assay, OBP2 (raw fluorescence reading): 21239
SfurOBP2; ligand concentration 16 (unit not given), replicate column 1 of 3
  Fluorescence competitive binding assay, OBP2 (raw fluorescence reading): 18660
SfurOBP2; ligand concentration 16 (unit not given), replicate column 2 of 3
  Fluorescence competitive binding assay, OBP2 (raw fluorescence reading): 19708
SfurOBP2; ligand concentration 16 (unit not given), replicate column 3 of 3
  Fluorescence competitive binding assay, OBP2 (raw fluorescence reading): 19350
SfurOBP2; ligand concentration 18 (unit not given), replicate column 1 of 3
  Fluorescence competitive binding assay, OBP2 (raw fluorescence reading): 24040
SfurOBP2; ligand concentration 18 (unit not given), replicate column 2 of 3
  Fluorescence competitive binding assay, OBP2 (raw fluorescence reading): 25474
SfurOBP2; ligand concentration 18 (unit not given), replicate column 3 of 3
  Fluorescence competitive binding assay, OBP2 (raw fluorescence reading): 26650
SfurOBP2; ligand concentration 20 (unit not given), replicate column 1 of 3
  Fluorescence competitive binding assay, OBP2 (raw fluorescence reading): 24631
SfurOBP2; ligand concentration 20 (unit not given), replicate column 2 of 3
  Fluorescence competitive binding assay, OBP2 (raw fluorescence reading): 21130
SfurOBP2; ligand concentration 20 (unit not given), replicate column 3 of 3
  Fluorescence competitive binding assay, OBP2 (raw fluorescence reading): 21384
